Assays:
[1] = In vitro MDCK-II permeability; format: in vitro ADME; settings: dog; for Papp A→B at 150 min, 2 µM / Papp B→A at 150 min, 2 µM: pH 7.4/7.4, n = 2; for Papp at 150 min, 2 µM: based on Papp,A-B, read-out: Permeability Rank
Procedure: (§1) The oral bioavailability of compounds in terms of Caco-2 and MDCK-II permeability and the P-glycoprotein (P-gp) efflux ratio were assessed. […] Quantification was done by LC-MS/MS. P-gp substrate activity was assessed by the efflux ratio (the ratio of Papp in the B-to-A direction over that in the A-to-B direction). […] P-gp is an ATP-dependent transporter on the apical plasma membrane of enterocytes that functions to limit the entry of drugs into the cell.

[2] = In vitro Caco-2 permeability; format: in vitro ADME; settings: human; for Papp A→B at 150 min, 2 µM / Papp B→A at 150 min, 2 µM: Caco-2, 2 µM, pH 6.5/7.4, n = 2; for Papp at 150 min, 2 µM: Caco-2, based on Papp,A-B, read-out: Permeability Rank
Procedure: as §1, with “assessed. The in vitro intrinsic half-life (T1/2,int) and the apparent intrinsic clearance (CLint,app) of compounds were also measured after incubation with human liver microsomes at 37.5 °C[65].” for “assessed.”

P-gp = assay: In vitro Caco-2 permeability; format: in vitro ADME; settings: human; Caco-2, 2 µM, 150 min; read-out: Efflux Ratio (B > A/A > B)
Procedure: as §1, with “assessed. The in vitro intrinsic half-life (T1/2,int) and the apparent intrinsic clearance (CLint,app) of compounds were also measured after incubation with human liver microsomes at 37.5 °C[65].” for “assessed.”

[3] = tested on: STZ-NA-induced diabetic rats; assay: Antidiabetic activity in STZ-NA-induced type 2 diabetic rats; settings: for HbA1c / blood glucose levels / HDL-C / Hb levels / TC, TG, VLDL-C and LDL-C: 15 days; for blood glucose levels: vs diabetic control rats; for HDL-C / Hb levels / TC, TG, VLDL-C and LDL-C: vs disease control (STZ + NA)
Procedure: The test dose was fixed based on the predicted LD50 value. […] Diabetic rats were orally treated with the test compounds at a dose of 36 mg/kg body weight for a period of 15 days. Fasting blood glucose of control, diabetic-untreated and diabetic-treated rats were tested on Days 1, 3, 7 and 15 of the treatment period (Fig. 6A).
Male Wistar strain rats weighing about 160–200 g were used for animal studies. […] Rats were provided with rodent diet and water ad libitum. […] The animals were allowed to drink 5% glucose solution overnight to prevent STZ-NA-induced hypoglycemia[82],[83]. The rats were considered as diabetic if their blood glucose levels were above 250 mg/dL on the 3rd day after STZ-NA injection. The rats were divided into four groups of six animals in each group. Control animals received normal saline (Group I). Diabetic rats received STZ-NA injection (Group II). […] The blood glucose level of each group was checked at 1, 3, 7 and 15 Day by withdrawing blood from tail vein of the animal using glucose meter (ACCu-Chek active, Roche, Diagnostics USA).
After pharmacological screening for antidiabetic activity, the animals were subjected to overnight fasting and blood was collected from retro-orbital region under light anaesthesia for performing various biochemical experiments. All the biochemical experiments were performed using commercially available kits. Total Hb was estimated by cyanomethaemoglobin method, while HbA1c was estimated from whole blood using commercially available kits following the manufacturer guidelines (ERBA Diagnostics Inc, Accurex Biomedical Pvt. Ltd., Coral clinical systems, India). TG concentration was determined by GPO-POD enzymatic-colorimetric method. TC level was measured by the end point, CHOD-POD colorimetric methods. HDL-C was assayed by the method reported earlier. VLDL-C and LDL-C in plasma were calculated by the Friedewald formula: VLDL-C = TG/5; LDL-C = TC-(HDL-C + VLDL-C)[88]. Levels of serum urea, uric acid, and creatinine were measured using commercially available kits[89].
Rats were sacrificed under light anesthesia using diethylether at the end of the pharmacological and biochemical studies. […] Then, the tissue was sliced out into sections of 5 µm thickness by a rotator microtome and stained with hematoxylin-eosin. Obtained sections were examined by a Leica DME microscope, and representative photomicrographs were taken by a 7.1 megapixel Canon Power Shot S70 digital camera.

[4] = XTT in vitro hepatotoxicity assay on HepG2 cells; format: cell-based, human; settings: human, highest tested concentration (1000 μM), read-out: cell viability
Procedure: (§2) HepG2 cells are considered as a useful model to study in vitro xenobiotic metabolism and liver toxicity. In particular, HepG2 cells are able to activate and detoxify xenobiotics and, they are the reason why these cells are intensively used in toxicology[58],[59]. Hepatotoxicity was determined using the XTT assay.
(§3) The final DMSO concentration was set at <0.1%. Rosiglitazone and Pioglitazone were used as positive controls. IC50 values and cell viability % were calculated.

[5] = tested on: HepG2 human hepatocellular liver carcinoma cell line; assay: XTT in vitro hepatotoxicity assay on HepG2 cells; format: cell-based; settings: at 1000 μM
Procedure: as §2, §3

MDCK-II monolayers = assay: In vitro MDCK-II permeability; format: in vitro ADME
Procedure: as §1

Caco-2 monolayers = assay: In vitro Caco-2 permeability; format: in vitro ADME
Procedure: as §1, with “assessed. The in vitro intrinsic half-life (T1/2,int) and the apparent intrinsic clearance (CLint,app) of compounds were also measured after incubation with human liver microsomes at 37.5 °C[65].” for “assessed.”

[6] = 36 mg/kg, light microscopy, hematoxylin-eosin
[7] = 2 µM, 150 min, pH 7.4/7.4, n = 2
[8] = Caco-2, 2 µM, 150 min, pH 6.5/7.4, n = 2

SMILES	Papp A→B at 150 min, 2 µM [1]	Papp B→A at 150 min, 2 µM [1]	Papp at 150 min, 2 µM [1]	Papp A→B at 150 min, 2 µM [2]	Papp B→A at 150 min, 2 µM [2]	Papp at 150 min, 2 µM [2]	efflux ratio at 150 min, 2 µM (P-gp)	HbA1c ([3]; 36 mg/kg oral)	blood glucose levels ([3]; 36 mg/kg oral)	HDL-C ([3]; 36 mg/kg oral)	Hb levels ([3]; 36 mg/kg oral)	TC, TG, VLDL-C and LDL-C ([3]; 36 mg/kg oral)	histological changes of pancreas (islets, β-cells) [3, 6]	cell viability compared with Rosiglitazone [5]	also measured
CCN(CC)C(=O)CN1C(=O)S/C(=C\c2ccccc2)C1=O [1i]	16.3 ×10⁻⁶ cm/s	11.9 ×10⁻⁶ cm/s	≥ 5 ×10⁻⁶ cm/s	23 ×10⁻⁶ cm/s	51.2 ×10⁻⁶ cm/s	≥ 5 ×10⁻⁶ cm/s	2.7	significantly prevented the increase	significantly reduced	increase	significant increase	significant decrease	restored to near normal	–	viability at 1000 µM [4]: 64 ± 3.93%
CCCCNC(=O)CN1C(=O)S/C(=C\c2ccc(Cl)cc2)C1=O [3a]	0.8 ×10⁻⁶ cm/s	0.4 ×10⁻⁶ cm/s	< 5 ×10⁻⁶ cm/s	1.6 ×10⁻⁶ cm/s	19.3 ×10⁻⁶ cm/s	< 5 ×10⁻⁶ cm/s	3.2	significantly prevented the increase	significantly reduced	increase	significant increase	significant decrease	restored to near normal	did not show any significant difference	blood glucose lowering activity compared with standard ([3]; 36 mg/kg oral, data for 15th Day): equivalent to the standard drug Pioglitazone
CCCCNC(=O)CN1C(=O)S/C(=C\c2ccccc2)C1=O [1a]	–	–	–	–	–	–	–	significantly prevented the increase	significantly reduced	increase	significant increase	significant decrease	restored to near normal	did not show any significant difference	Avg Papp A to B (MDCK-II monolayers; [7]): 1.8 ×10⁻⁶ cm/s; Avg Papp B to A (MDCK-II monolayers; [7]): 2.5 ×10⁻⁶ cm/s; Permeability Rank (MDCK-II monolayers; based on Papp,A-B): Low (Low, Papp,A-B < 5 × 10^−6 cm/sec); Avg Papp A to B (Caco-2 monolayers; [8]): 2.4 ×10⁻⁶ cm/s; Avg Papp B to A (Caco-2 monolayers; [8]): 14.3 ×10⁻⁶ cm/s; Permeability Rank (Caco-2 monolayers; Caco-2, based on Papp,A-B): Low (Low, Papp,A-B < 5 × 10^−6 cm/sec); liver histopathology [3, 6]: no hepatic abnormalities
